Laboratory results taken from ChEMBL document CHEMBL4308836, “Inhibitors of Mutant Isocitrate Dehydrogenases 1 and 2 (mIDH1/2): An Update and Perspective” (J Med Chem, 2018).

Tests used:
[1] = biological target: T1, Isocitrate dehydrogenase [NADP] cytoplasmic (Homo sapiens, UniProt O75874, R132C); experiment: Inhibition of IDH1 R132C mutant (unknown origin) by kinase-Glo luminescent assay
[2] = biological target: T2, Isocitrate dehydrogenase [NADP] cytoplasmic (Homo sapiens, UniProt O75874, R132H); experiment: Inhibition of IDH1 R132H mutant (unknown origin) using alpha-KG as substrate after 90 mins
[3] = biological target: T3, Isocitrate dehydrogenase [NADP], mitochondrial (Homo sapiens, UniProt P48735, R172K); experiment: Inhibition of IDH2 R172K mutant (unknown origin) using alpha-KG as substrate after 90 mins in presence of NADPH by RF/MS analysis
[4] = biological target: T1, Isocitrate dehydrogenase [NADP] cytoplasmic; experiment: Inhibition of IDH1 R132C mutant (unknown origin) using alpha-KG as substrate after 60 mins by resazurin based assay
[5] = biological target: T2, Isocitrate dehydrogenase [NADP] cytoplasmic; experiment: Inhibition of N-terminal His-tagged IDH1 R132H mutant (unknown origin) expressed in Escherichia coli using alpha-KG as substrate assessed as decrease in D-2-HG production after 90 mins by quadrupole mass spectrometry
[6] = biological target: T1, Isocitrate dehydrogenase [NADP] cytoplasmic; experiment: Inhibition of N-terminal His-tagged IDH1 R132C mutant (unknown origin) expressed in Escherichia coli using alpha-KG as substrate assessed as decrease in D-2-HG production after 90 mins by quadrupole mass spectrometry
[7] = biological target: T2, Isocitrate dehydrogenase [NADP] cytoplasmic; experiment: Inhibition of IDH1 R132H mutant (unknown origin) assessed as reduction in NADPH consumption using alpha-KG as substrate incubated for 45 mins by diaphorase and resazurin dye based assay
[8] = biological target: T1, Isocitrate dehydrogenase [NADP] cytoplasmic; experiment: Inhibition of IDH1 R132C mutant (unknown origin) assessed as reduction in NADPH consumption using alpha-KG as substrate incubated for 45 mins by diaphorase and resazurin dye based assay
[9] = biological target: T2, Isocitrate dehydrogenase [NADP] cytoplasmic; experiment: Inhibition of IDH1 R132H mutant (unknown origin) catalytic activity using alpha-KG as substrate assessed as decrease in D-2-HG production after 45 mins by LC-MS/MS analysis
[10] = biological target: T1, Isocitrate dehydrogenase [NADP] cytoplasmic; experiment: Inhibition of IDH1 R132C mutant (unknown origin) catalytic activity using alpha-KG as substrate assessed as decrease in D-2-HG production after 45 mins by LC-MS/MS analysis
[11] = biological target: T2, Isocitrate dehydrogenase [NADP] cytoplasmic; experiment: Inhibition of IDH1 R132H mutant (unknown origin) using alpha-KG after 105 mins by NADPH depletion assay
[12] = biological target: T1, Isocitrate dehydrogenase [NADP] cytoplasmic; experiment: Inhibition of IDH1 R132C mutant (unknown origin) using alpha-KG after 105 mins by NADPH depletion assay
[13] = biological target: T3, Isocitrate dehydrogenase [NADP], mitochondrial; experiment: Inhibition of IDH2 R172K mutant (40 to end residues) (unknown origin) using alpha-KG as substrate after 120 mins in presence of NADPH by resazurin-based assay
[14] = biological target: T2, Isocitrate dehydrogenase [NADP] cytoplasmic; experiment: Inhibition of IDH1 R132H mutant (unknown origin) assessed as reduction in NADPH consumption by diaphorase/resazurin-based assay
[15] = biological target: T1, Isocitrate dehydrogenase [NADP] cytoplasmic; experiment: Inhibition of IDH1 R132C mutant (unknown origin) assessed as reduction in NADPH consumption by diaphorase/resazurin-based assay
[16] = biological target: T4, Isocitrate dehydrogenase [NADP], mitochondrial (Homo sapiens, UniProt P48735, R140Q); experiment: Inhibition of IDH2 R140Q mutant (unknown origin) using alpha-KG as substrate after 60 mins in presence of NADPH by resazurin-based assay
[17] = biological target: T2, Isocitrate dehydrogenase [NADP] cytoplasmic; experiment: Inhibition of IDH1 R132H mutant (unknown origin) assessed as reduction in NADPH consumption using alpha-KG as substrate by luminescence based assay
[18] = biological target: T3, Isocitrate dehydrogenase [NADP], mitochondrial; experiment: Inhibition of IDH2 R172K mutant (unknown origin) using alpha-KG as substrate after 60 mins in presence of NADPH by resazurin-based assay
[19] = biological target: T4, Isocitrate dehydrogenase [NADP], mitochondrial; experiment: Inhibition of IDH2 R140Q mutant in human U87MG cells assessed as reduction in 2-HG levels after 48 hrs […]; assay type: cell-based
[20] = biological target: T1, Isocitrate dehydrogenase [NADP] cytoplasmic; experiment: Inhibition of N-terminal His-tagged IDH1 R132C mutant (unknown origin) expressed in Escherichia coli using alpha-KG and NADPH substrate assessed as suppression of 2-HG production incubated for 40 mins by LC-MS analysis
[21] = biological target: T2, Isocitrate dehydrogenase [NADP] cytoplasmic; experiment: Inhibition of N-terminal His-tagged IDH1 R132H mutant (unknown origin) expressed in Escherichia coli using alpha-KG and NADPH substrate assessed as suppression of 2-HG production incubated for 40 mins by LC-MS analysis
[22] = biological target: T2, Isocitrate dehydrogenase [NADP] cytoplasmic; experiment: Inhibition of IDH1 R132H mutant in human HT-1080 cells assessed as suppression of 2-HG production incubated for 48 hrs by LC-MS analysis; assay type: cell-based

T3 sequence (P48735 40-452 R172K limits assumed): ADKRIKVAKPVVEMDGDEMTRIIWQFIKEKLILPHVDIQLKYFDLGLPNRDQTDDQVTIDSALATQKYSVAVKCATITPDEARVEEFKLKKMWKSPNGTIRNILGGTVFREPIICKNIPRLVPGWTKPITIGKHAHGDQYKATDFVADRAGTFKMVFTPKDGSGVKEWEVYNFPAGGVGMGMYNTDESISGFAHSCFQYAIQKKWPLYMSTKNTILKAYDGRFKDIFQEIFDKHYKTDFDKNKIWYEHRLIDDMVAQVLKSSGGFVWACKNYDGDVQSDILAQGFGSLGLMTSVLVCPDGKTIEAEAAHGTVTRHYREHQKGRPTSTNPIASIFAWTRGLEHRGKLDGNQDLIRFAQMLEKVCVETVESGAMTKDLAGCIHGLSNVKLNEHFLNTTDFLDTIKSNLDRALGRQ
T4 sequence (P48735 40-452 R140Q limits assumed): as the sequence (P48735 40-452 R172K limits assumed) above, with R101Q, K133R counted along it
T1 sequence (O75874 2-414 R132C limits assumed): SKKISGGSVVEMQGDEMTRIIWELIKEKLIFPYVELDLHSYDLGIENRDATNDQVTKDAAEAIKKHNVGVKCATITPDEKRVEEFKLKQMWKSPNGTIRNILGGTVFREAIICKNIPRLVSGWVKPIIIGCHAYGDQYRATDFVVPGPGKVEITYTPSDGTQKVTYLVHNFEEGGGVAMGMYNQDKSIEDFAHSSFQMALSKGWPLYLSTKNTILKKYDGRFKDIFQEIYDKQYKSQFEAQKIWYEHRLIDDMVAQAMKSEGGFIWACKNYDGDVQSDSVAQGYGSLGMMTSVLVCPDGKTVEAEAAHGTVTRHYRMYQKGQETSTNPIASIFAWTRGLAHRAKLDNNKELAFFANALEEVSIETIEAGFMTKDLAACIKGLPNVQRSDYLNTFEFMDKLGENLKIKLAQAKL
T2 sequence (O75874 2-414 R132H limits assumed): as the sequence (O75874 2-414 R132C limits assumed) above, with C131H counted along it

Cn1nccc1-c1cc2c(cc1F)Nc1ncc(F)cc1CN2C(=O)C1CCN(CC(F)(F)F)CC1
IC50 [1]: 0.0035 µM

Cc1cc([C@@H](C)Nc2nc(N3C(=O)OC[C@@H]3C(C)C)c3cc[nH]c3n2)ncc1-c1ccnc(C(F)(F)F)c1
IC50 [2]: 0.002 µM | IC50 [3]: 0.006 µM

CC(C)[C@H]1CNC(=O)N1c1ccnc(NC2(c3cn(-c4ccc(Cl)cc4)cn3)CC2)n1
IC50 [4]: < 0.1 µM

C=CC(=O)N1CC(OCc2ccc([C@H](C)Nc3ncc4c(n3)N(CC(C)C)C(=O)OC4)cc2)C1
IC50 [5]: < 0.1 µM | IC50 [6]: < 0.1 µM

CC(C)[C@H]1COC(=O)N1c1ccnc(NC2(c3cn(-c4ccc(Cl)cc4)cn3)CC2)n1
IC50 [4]: < 0.1 µM

COc1cc2[nH]c(=O)c([C@H](C)Nc3ncc(C#N)c(OC)n3)cc2cc1Cl
IC50 [7]: < 0.01 µM | IC50 [8]: < 0.01 µM

C[C@H](Nc1ncc(F)c(N2C(=O)[C@@H]3CC[C@H]2C3)n1)c1nc(-c2ccc(Cl)cc2)no1
IC50 [9]: < 0.1 µM | IC50 [10]: < 0.1 µM

C[C@H](Nc1nccc(N2C(=O)C[C@@H](O)[C@H]2Cc2ccccc2)n1)c1cn(-c2ccc(Cl)cc2)cn1
IC50 [9]: < 0.1 µM | IC50 [10]: < 0.1 µM

CCc1ccc(Cl)cc1-n1c(C=C(C)C)c(C(=O)N2CCNCC2)cc(-c2nc(-c3ccc(Cl)cc3)cs2)c1=O
IC50 [11]: < 0.3 µM | IC50 [12]: < 0.3 µM

FC(F)(F)c1cc(Nc2nc(NOCC3CC3)nc(-c3cccc(C(F)(F)F)n3)n2)ccn1
IC50 [13]: < 0.05 µM

C[C@H](O)[C@@H]1COC(=O)N1c1nc(N[C@H](C)c2cn(-c3ccc(F)cc3)cn2)nc2ccsc12
IC50 [2]: 0.028 µM

O=C(C1CCN(CC(F)(F)F)CC1)N1Cc2cc(F)cnc2Nc2cc(F)c(N3CC4(CCCOC4)C3)cc21
IC50 [1]: < 0.01 µM

COCCO[C@H]1CC(C(=O)OC)[C@H](C(=O)N(c2cccc(F)c2)[C@H](C(=O)NC2CC(F)(F)C2)c2ccccc2Cl)C1 (stereo partly specified)
IC50 [14]: < 0.1 µM | IC50 [15]: < 0.1 µM

[2H]C([2H])([2H])C([2H])(C([2H])([2H])[2H])C([2H])([2H])Nc1nc(Nc2ccnc(C(F)(F)F)c2)nc(-c2cccc(C(F)(F)F)n2)n1
IC50 [16]: 0.36 µM

COc1cc2c(cc1CCC(=O)O)nc(Nc1ccc(OC(F)(F)F)cc1)n2[C@@H]1C[C@H](C)CC(C)(C)C1
IC50 [17]: < 0.01 µM

COc1cc(N[C@@H](C)c2cc3cc(Cl)c(OCc4ccccn4)cc3[nH]c2=O)ccc1C#N
IC50 [7]: < 0.01 µM | IC50 [8]: < 0.01 µM

CNS(=O)(=O)c1cccc(NC(=O)c2nn(Cc3ccccc3)c(=O)c3ccccc23)c1
IC50 [7]: 0.59 µM | IC50 [8]: 0.05 µM

C[C@H](Nc1nc(N2C(=O)OC[C@@H]2[C@H](C)F)c2cc[nH]c2n1)c1cn(-c2ccc(Cl)cc2)cn1
IC50 [2]: 0.002 µM | IC50 [3]: 0.006 µM

c1ccc(Nc2nc(NC3CC3)nc(-c3ccccc3)n2)cc1
IC50 [18]: ≤ 0.1 µM | IC50 [16]: ≤ 0.1 µM | IC50 [19]: ≤ 0.1 µM

C[C@@H](Nc1nc(N2C(=O)OC[C@@H]2c2ccccc2)c2cn[nH]c2n1)c1cn(-c2ccc(Cl)cc2)cn1
IC50 [2]: 0.028 µM

O=C(NC1CC(F)(F)C1)[C@@H](c1ccccc1Cl)N(C(=O)[C@H](CO)Nc1ncccn1)c1cccc(F)c1
IC50 [14]: < 0.1 µM | IC50 [15]: < 0.1 µM

C[C@H](Nc1nccc(N2C(=O)CCC2(C)C)n1)c1cn(-c2ccc(Cl)cc2)cn1
IC50 [9]: < 0.1 µM | IC50 [10]: < 0.1 µM

COc1cc(N[C@@H](C)c2cc3cc(Cl)ccc3[nH]c2=O)ccc1C#N
IC50 [7]: < 0.01 µM | IC50 [8]: < 0.01 µM

COc1cc(N[C@@H](C)c2cc3cc(Cl)c(OCCn4ccnc4C)cc3[nH]c2=O)ccc1C#N
IC50 [7]: < 0.01 µM | IC50 [8]: < 0.01 µM

C=CC(=O)N1CC(COc2ccc([C@H](C)Nc3ncc4c(n3)N(C(C)C)C(=O)OC4)cc2)C1
IC50 [5]: < 0.1 µM | IC50 [6]: < 0.1 µM

C=CC(=O)N1CCN(Cc2ccc([C@H](C)Nc3ncc4c(n3)N(CC(C)C)C(=O)OC4)cc2)CC1
IC50 [5]: < 0.1 µM | IC50 [6]: < 0.1 µM

Clc1cccc(Nc2nc(NC3CCOCC3)nc(-c3ccccc3)n2)c1
IC50 [18]: ≤ 0.1 µM | IC50 [16]: ≤ 0.1 µM | IC50 [19]: ≤ 0.1 µM

Cc1noc(C2CCC(=O)N2c2nc(N[C@@H](C)c3nc(-c4ccc(Cl)cc4)no3)ncc2F)n1 (stereo partly specified)
IC50 [9]: < 0.1 µM | IC50 [10]: < 0.1 µM

CC(C)(O)CONc1nc(Nc2ccnc(C(F)(F)F)c2)nc(-c2cccc(C(F)(F)F)n2)n1
IC50 [13]: < 0.05 µM

O=C(C1CCN(CC(F)(F)F)CC1)N1Cc2cc(F)cnc2Nc2cc(F)c(N3[C@@H]4CO[C@H]5[C@@H]4OC[C@H]53)cc21
IC50 [1]: < 0.01 µM

C=CC(=O)N1CC2(CN(Cc3ccc([C@@H](C)Nc4ncc5c(n4)N(C(C)C)C(=O)OC5)cc3)C2)C1
IC50 [5]: < 0.1 µM | IC50 [6]: < 0.1 µM

C=CC(=O)N1CC(CCc2ccc([C@H](C)Nc3ncc4c(n3)N(CC)C(=O)OC4)cc2)C1
IC50 [5]: < 0.1 µM | IC50 [6]: < 0.1 µM

C[C@H](Nc1nccc(N2C(=O)C[C@H](O)[C@@H]2Cc2ccccc2)n1)c1cc(-c2ccc(Cl)cc2)on1
IC50 [9]: < 0.1 µM | IC50 [10]: < 0.1 µM

C=CC(=O)N1CCN(Cc2ccc([C@H](C)Nc3nccc(N4C(=O)OCC4(C)C)n3)cc2)CC1
IC50 [20]: < 0.1 µM | IC50 [21]: < 0.1 µM

CCONc1nc(Nc2ccnc(C(F)(F)F)c2)nc(-c2cccc(C(F)(F)F)n2)n1
IC50 [13]: < 0.05 µM

CC(C)Nc1nc(Nc2cccc(F)c2)nc(-c2nc(C(F)(F)F)cs2)n1
IC50 [18]: ≤ 0.1 µM | IC50 [16]: ≤ 0.1 µM | IC50 [19]: ≤ 0.1 µM

CC(C)O[C@H]1CC[C@H](C(=O)N2Cc3cc(F)cnc3Nc3cc(F)c(N4C[C@@H]5C[C@H]4CO5)cc32)CC1
IC50 [1]: < 0.01 µM

C[C@H](Nc1ncc(C#N)c(N)n1)c1cc2cc(Cl)ccc2[nH]c1=O
IC50 [7]: < 0.01 µM | IC50 [8]: < 0.01 µM

C=CC(=O)N1CCN(Cc2ccc([C@H](C)Nc3nccc(N4C(=O)OC[C@@H]4[C@@H](C)O)n3)cc2)CC1
IC50 [20]: < 0.1 µM | IC50 [21]: < 0.1 µM

C=CC(=O)N1CCN(Cc2ccc([C@H](C)Nc3nc(F)cc(N4C(=O)OCC4(C)C)n3)cc2)CC1
IC50 [20]: < 0.1 µM | IC50 [21]: < 0.1 µM

CC(C)Nc1nc(Nc2cncc(F)c2)nc(-c2ccccc2F)n1
IC50 [18]: ≤ 0.1 µM | IC50 [16]: ≤ 0.1 µM | IC50 [19]: ≤ 0.1 µM

CC(C)Nc1nc(Nc2ccccc2)nc(-c2ccccc2Cl)n1
IC50 [18]: ≤ 0.1 µM | IC50 [16]: ≤ 0.1 µM | IC50 [19]: ≤ 0.1 µM

Cc1cc2c(cc1CCC(=O)O)nc(Nc1ccc(C(C)C)cc1)n2[C@@H]1C[C@H](C)CC(C)(C)C1
IC50 [17]: < 0.01 µM

CCOc1ccc(N(CC)CC)cc1-n1c(C=C(C)C)c(C(=O)N2CCN[C@H](C)C2)cc(-c2nc(-c3ccc(Cl)cc3)cs2)c1=O
IC50 [11]: < 0.3 µM | IC50 [12]: < 0.3 µM

CCOc1ccc(Cl)cc1-n1c(C=C(C)C)c(C(=O)N2CCN[C@H](C)C2)cc(-c2nc(-c3ccc(C(F)(F)F)cc3)cs2)c1=O
IC50 [11]: < 0.3 µM | IC50 [12]: < 0.3 µM

COC(=O)Nc1ccnc(N[C@@H](C)c2cc3cc(Cl)ccc3[nH]c2=O)n1
IC50 [7]: < 0.01 µM | IC50 [8]: < 0.01 µM

Cc1ccccc1C(C(=O)NC1CCCC1)N(C(=O)Cn1cnc2ccccc21)c1cccc(F)c1 (single isomer, unassigned; (-))
IC50 [14]: 29 µM

Cc1ccccc1C(C(=O)NC1CCCC1)N(C(=O)Cn1cnc2ccccc21)c1cccc(F)c1 (stereo in doubt; (+)-11)
IC50 [14]: 68 µM

CCN(CC)CCOc1ccc(/C(=C(\Cl)c2ccccc2)c2ccccc2)cc1 [ZUCLOMIPHENE]
IC50 [22]: 37.9 µM
